Results published in article PMC12217109, “Development of novel benzamide class I selective lysine deacetylase inhibitors as potent anticancer agents” (Journal of Enzyme Inhibition and Medicinal Chemistry, 2025).
Read-outs that look alike come from different tables or passages of the source.

What was measured:
[1] = system: T-47D; assay: NCI-60 cytotoxicity screen; type: cell-based, human; details: Homo sapiens, T47D; NCI-60, 48 h, breast
[2] = system: U251; assay: NCI-60 cytotoxicity screen; type: cell-based; details: Homo sapiens, U-251; NCI-60, 48 h, CNS
Text: (§1) Compounds 3–7 were submitted to the US National Cancer Institute (NIH, Bethesda, Maryland) for screening against the NCI-60 panel of human cancer cell lines, as per standard protocol.

[3] = system: KM12; assay: NCI-60 cytotoxicity screen; type: cell-based; details: Homo sapiens, NCI-60, 48 h, colon
Text: as §1

[4] = system: 786-0; assay: NCI-60 cytotoxicity screen; type: cell-based; details: Homo sapiens, NCI-60, 48 h, renal
Text: as §1

[5] = system: SF-539; assay: NCI-60 cytotoxicity screen; type: cell-based; details: Homo sapiens, NCI-60, 48 h, CNS
Text: as §1

[6] = system: SK-MEL-28; assay: NCI-60 cytotoxicity screen; type: cell-based; details: Homo sapiens, NCI-60, 48 h, melanoma
Text: as §1

[7] = system: SR; assay: NCI-60 cytotoxicity screen; type: cell-based; details: Homo sapiens, NCI-60, 48 h, leukaemia
Text: as §1

[8] = system: M14; assay: NCI-60 cytotoxicity screen; type: cell-based; details: Homo sapiens, NCI-60, 48 h, melanoma
Text: as §1

[9] = system: RPMI-8226; assay: NCI-60 cytotoxicity screen; type: cell-based; details: Homo sapiens, NCI-60, 48 h, leukaemia
Text: as §1

[10] = system: UACC-62; assay: NCI-60 cytotoxicity screen; type: cell-based; details: Homo sapiens, NCI-60, 48 h, melanoma
Text: as §1

[11] = system: PC-3; assay: NCI-60 cytotoxicity screen; type: cell-based; details: Homo sapiens, NCI-60, 48 h, prostate
Text: as §1

[12] = system: HL-60; assay: NCI-60 cytotoxicity screen; type: cell-based; details: Homo sapiens, NCI-60, 48 h, leukaemia
Text: as §1

[13] = system: MCF-7; assay: NCI-60 cytotoxicity screen; type: cell-based; details: Homo sapiens, MCF7; NCI-60, 48 h, breast
Text: as §1

[14] = system: H23; assay: NCI-60 cytotoxicity screen; type: cell-based; details: Homo sapiens, NCI-60, 48 h, NSCLC
Text: as §1

[15] = system: A549; assay: NCI-60 cytotoxicity screen; type: cell-based; details: Homo sapiens, NCI-60, 48 h, NSCLC
Text: as §1

[16] = system: UO-31; assay: NCI-60 cytotoxicity screen; type: cell-based; details: Homo sapiens, NCI-60, 48 h, renal
Text: as §1

[17] = system: ACHN; assay: NCI-60 cytotoxicity screen; type: cell-based; details: Homo sapiens, NCI-60, 48 h, renal
Text: as §1

[18] = system: HCT116; assay: NCI-60 cytotoxicity screen; type: cell-based; details: Homo sapiens, HCT-116; NCI-60, 48 h, colon
Text: as §1

[19] = system: HOP-62; assay: NCI-60 cytotoxicity screen; type: cell-based; details: Homo sapiens, NCI-60, 48 h, NSCLC
Text: as §1

[20] = system: LOX IMVI; assay: NCI-60 cytotoxicity screen; type: cell-based; details: Homo sapiens, NCI-60, 48 h, melanoma
Text: as §1

[21] = system: HCT15; assay: NCI-60 cytotoxicity screen; type: cell-based; details: Homo sapiens, HCT-15; NCI-60, 48 h, colon
Text: as §1

[22] = system: IGROV-1; assay: NCI-60 cytotoxicity screen; type: cell-based; details: Homo sapiens, NCI-60, 48 h, ovarian
Text: as §1

[23] = system: SF-295; assay: NCI-60 cytotoxicity screen; type: cell-based; details: Homo sapiens, NCI-60, 48 h, CNS
Text: as §1

[24] = system: H460; assay: NCI-60 cytotoxicity screen; type: cell-based; details: Homo sapiens, NCI-60, 48 h, NSCLC
Text: as §1

[25] = system: SF-268; assay: NCI-60 cytotoxicity screen; type: cell-based; details: Homo sapiens, NCI-60, 48 h, CNS
Text: as §1

[26] = system: SK-MEL-5; assay: NCI-60 cytotoxicity screen; type: cell-based; details: Homo sapiens, NCI-60, 48 h, melanoma
Text: as §1

[27] = system: OVCAR-8; assay: NCI-60 cytotoxicity screen; type: cell-based; details: Homo sapiens, NCI-60, 48 h, ovarian
Text: as §1

[28] = system: OVCAR-4; assay: NCI-60 cytotoxicity screen; type: cell-based; details: Homo sapiens, NCI-60, 48 h, ovarian
Text: as §1

[29] = system: COLO205; assay: NCI-60 cytotoxicity screen; type: cell-based; details: Homo sapiens, COLO 205; NCI-60, 48 h, colon
Text: as §1

[30] = system: DU-145; assay: NCI-60 cytotoxicity screen; type: cell-based; details: Homo sapiens, NCI-60, 48 h, prostate
Text: as §1

[31] = system: HS 578 T; assay: NCI-60 cytotoxicity screen; type: cell-based; details: Homo sapiens, NCI-60, 48 h, breast
Text: as §1

[32] = system: A2780 ovarian cancer cell line; assay: MTT cellular viability assay, A2780; type: cell-based; details: Homo sapiens
[33] = system: H322M; assay: NCI-60 cytotoxicity screen; type: cell-based, human; details: Homo sapiens, NCI-H322M; NCI-60, 48 h, NSCLC
Text: as §1

[34] = system: TK-10; assay: NCI-60 cytotoxicity screen; type: cell-based, human; details: Homo sapiens, TK-10; NCI-60, 48 h, renal
Text: as §1

[35] = system: UACC-257; assay: NCI-60 cytotoxicity screen; type: cell-based, human; details: Homo sapiens, UACC-257; NCI-60, 48 h, melanoma
Text: as §1

[36] = system: OVCAR-5; assay: NCI-60 cytotoxicity screen; type: cell-based; details: Homo sapiens, NCI-60, 48 h, ovarian
[37] = system: MCF7 breast cancer cell line; assay: MTT cellular viability assay, MCF7; type: cell-based; details: Homo sapiens, 96 h
Experimental: The human A2780 ovarian (#93112519) and MCF-7 breast (#86012803) cancer cell lines were obtained from the European Cell Culture Collection (ECACC; Salisbury, UK). The human cardiac ventricular AC16 cell line (#SCC109) was obtained from Merck/Millipore (UK). The A2780 and MCF-7 cell lines were maintained in RPMI-1640 medium and the AC16 cell line was maintained in DMEM/F12 medium. Culture medium of all three cell lines was supplemented with 10% heat-inactivated foetal bovine serum (FBS) and 2 mM L-glutamine, with the cells maintained in a humidified 5% CO2 atmosphere at 37 °C. The media was changed every 72h and the cells passaged via trypsinisation (Trypsin EDTA, 0.25%) before reaching confluency.
Cytotoxicity of each compound against the cell lines was assessed using the MTT assay. Cells were seeded in three replicates into 96-well plates at a density of 2 × 10^3/well for 24h to facilitate cell attachment. Media was replaced with that containing either test compound (0–10µM) for A2780 and MCF7 cell lines, single concentration (10 µM) test compound for AC16 cell line, or drug vehicle (dimethyl sulphoxide; DMSO) and the cells incubated for a further 96 h at 37 °C in a humidified 5% CO2 atmosphere. […] Chemosensitivity was thereafter assessed using a standard 3-[4, 5-dimethylthiazolyl]-2,5-diphenyltetrazolium bromide (MTT) assay, with the optical density determined at 540 nm as an indicator of cellular viability.

[38] = A2780, MTT, 96 h, read-out: A2780 IC50
[39] = listed as A2780* of Table 4, ovarian, values as in Tables 1 and 2 (MTT), read-out: A2780* cytotoxicity IC50

SMILES	IC50 [1] [µM]	IC50 [2] [µM]	IC50 [3] [µM]	IC50 [4] [µM]	IC50 [5] [µM]	IC50 [6] [µM]	IC50 [7] [µM]	IC50 [8] [µM]	IC50 [9] [µM]	IC50 [10] [µM]	IC50 [11] [µM]	IC50 [12] [µM]	IC50 [13] [µM]	IC50 [14] [µM]	IC50 [15] [µM]	IC50 [16] [µM]	IC50 [17] [µM]	IC50 [18] [µM]	IC50 [19] [µM]	IC50 [20] [µM]	also measured
C=C(CN1CCN(c2ccccn2)CC1)c1ccc(C(=O)Nc2ccccc2N)cc1 [Compound 6, N-(2-aminophenyl)-4–(3-(4-(pyridin-2-yl)piperazin-1-yl)prop-1-en-2-yl)benzamide]	1.23	1.48	0.94	1.21	1.5	2.52	5.33	8.47	1.6	1.41	3.78	2.19	3.16	0.94	2.39	1.8	1.5	2.5	1.32	0.93	IC50 [21]: 1.91 µM; IC50 [22]: 1.57 µM; IC50 [23]: 1.39 µM; IC50 [24]: 2.81 µM; IC50 [25]: 1.66 µM; IC50 [26]: 0.73 µM; IC50 [27]: 1.5 µM; IC50 [28]: 6.35 µM; IC50 [29]: 1.71 µM; IC50 [30]: 2.52 µM; IC50 [31]: 1.11 µM; IC50 [32, 38]: 3.5 ± 1.3 µM; IC50 [32, 39]: 3.5 µM; IC50 [33]: 3.12 µM; IC50 [34]: 1.85 µM; IC50 [35]: 2.32 µM; IC50 [36]: 6.1 µM; IC50 [37]: 3.2 ± 0.8 µM
C=C(CN1CCN(c2cccc(C(F)(F)F)n2)CC1)c1ccc(C(=O)Nc2ccccc2N)cc1 [Compound 7, N-(2-aminophenyl)-4–(3-(4–(6-(trifluoromethyl)pyridin-2-yl)piperazin-1-yl)prop-1-en-2-yl)benzamide]	3.01	1.16	0.67	1.97	0.98	2.08	0.28	0.97	0.53	0.97	0.42	0.32	0.35	14.1	3.32	2.75	8.39	0.54	2.21	1.49	IC50 [21]: 0.92 µM; IC50 [22]: 2.01 µM; IC50 [23]: 0.39 µM; IC50 [24]: 0.64 µM; IC50 [25]: 1.12 µM; IC50 [26]: 0.4 µM; IC50 [27]: 4.25 µM; IC50 [28]: 8.36 µM; IC50 [29]: 3.33 µM; IC50 [30]: 1.45 µM; IC50 [31]: 0.45 µM; IC50 [32, 38]: 0.8 ± 0.1 µM; IC50 [32, 39]: 0.8 µM; IC50 [33]: > 100 µM; IC50 [34]: 16.4 µM; IC50 [35]: 26.5 µM; IC50 [36]: 0.71 µM; IC50 [37]: 0.8 ± 0.3 µM
Nc1ccccc1NC(=O)c1ccc(CNC(=O)OCc2cccnc2)cc1 [Compound 1, Entinostat, reference compound]	0.46	2.03	4.31	4.97	3.19	0.66	0.53	2.35	0.9	0.28	2.79	0.85	0.64	3.22	3.28	1.17	2.33	0.8	2.06	1.06	IC50 [21]: 8.47 µM; IC50 [22]: 3.95 µM; IC50 [23]: 2.56 µM; IC50 [24]: 0.83 µM; IC50 [25]: 1.86 µM; IC50 [26]: 0.74 µM; IC50 [27]: 1.03 µM; IC50 [28]: 1.31 µM; IC50 [29]: 2 µM; IC50 [30]: 2.26 µM; IC50 [31]: 2.33 µM; IC50 [32, 39]: 0.6 µM; IC50 [33]: 4.79 µM; IC50 [34]: 0.29 µM; IC50 [35]: 1.43 µM; IC50 [36]: 1.05 µM; IC50 [37]: 0.4 ± 0.1 µM
